Assay results from BindingDB's records for doi:10.1016/j.bmcl.2012.07.086 (Shandong Academy of Sciences, 2012).

Molecular target: T1, Aminopeptidase N (Sus scrofa, UniProt P15145)
T1 sequence (P15145 whole entry): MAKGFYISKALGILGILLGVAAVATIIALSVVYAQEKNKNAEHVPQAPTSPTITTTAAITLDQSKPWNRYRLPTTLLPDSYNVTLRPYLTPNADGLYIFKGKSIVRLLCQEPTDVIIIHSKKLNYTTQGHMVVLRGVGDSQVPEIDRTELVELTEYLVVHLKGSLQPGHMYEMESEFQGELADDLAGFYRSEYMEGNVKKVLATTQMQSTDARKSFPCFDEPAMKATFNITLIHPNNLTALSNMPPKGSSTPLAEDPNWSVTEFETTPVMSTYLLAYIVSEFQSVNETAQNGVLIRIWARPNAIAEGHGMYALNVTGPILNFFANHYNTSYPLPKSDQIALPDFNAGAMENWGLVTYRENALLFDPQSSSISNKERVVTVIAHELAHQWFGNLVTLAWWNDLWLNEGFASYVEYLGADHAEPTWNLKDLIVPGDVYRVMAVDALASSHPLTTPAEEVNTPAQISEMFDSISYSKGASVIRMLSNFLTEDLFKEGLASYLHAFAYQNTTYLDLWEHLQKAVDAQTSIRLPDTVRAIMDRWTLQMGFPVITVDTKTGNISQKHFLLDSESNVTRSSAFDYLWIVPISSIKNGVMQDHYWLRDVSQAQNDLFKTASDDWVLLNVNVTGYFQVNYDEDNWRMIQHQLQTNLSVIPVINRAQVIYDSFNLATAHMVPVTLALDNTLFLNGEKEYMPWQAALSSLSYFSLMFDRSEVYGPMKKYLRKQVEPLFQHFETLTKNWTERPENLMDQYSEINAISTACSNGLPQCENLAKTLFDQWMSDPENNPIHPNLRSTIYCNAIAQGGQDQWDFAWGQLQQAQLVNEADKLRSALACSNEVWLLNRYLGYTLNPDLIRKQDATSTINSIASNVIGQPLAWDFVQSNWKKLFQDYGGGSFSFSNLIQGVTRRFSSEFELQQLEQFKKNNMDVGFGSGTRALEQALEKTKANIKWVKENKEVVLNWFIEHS
Assay: Inhibition of porcine kidney microsome aminopeptidase using L-Leu-p-nitroanilide as substrate after 30 mins

**Q.** Which IC50 does the source give for `Cc1cc(C/N=N/c2ccc([N+](=O)[O-])cc2[N+](=O)[O-])c(C)n1-c1ccc(S(N)(=O)=O)cc1` here?
**A.** Its IC50 is greater than 1000 µM.

**Q.** With `O=C1NC(=O)C(N=Nc2cc([N+](=O)[O-])ccc2O)C(=O)N1` as the molecule, how does the IC50 read?
**A.** The IC50 was greater than 1000 µM.
